This note sets out measurements from patent US20020161018A1, “Enhancement of the potency and efficacy of local anesthetics with ibutilide and other methanesulfonamide drugs” (priority 2001, published 2002).

Structures are written as SMILES. “Also recorded” adds a separate entry of the source. Counter-ions that a name gives are not always drawn. Marks after values point to notes of the source that are not given here.

Test [1] deals with male ICR mice. Nature of the test: Hot-plate paw-withdrawal test after popliteal (peri-sciatic nerve block) injection. Particulars: for local anesthesia of the drug alone in the presence of 1:200,000 epinephrine: 0.125% bupivacaine or ibutilide (3.9 nmoles), each with 1:200,000 epinephrine; for local anesthesia of the drug alone (paw-withdrawal latency): 0.5% bupivacaine or ibutilide (3.9 nmoles) with vehicle, 60-min time-course, or bupivacaine dose-response at 10-min; for Potency ratio (95% C.L.): 10-min; for % Bupivacaine ED50 (95% C.L.): tested 10-min later. The test is classed as in vivo. How it is done: Animals: Male ICR mice (25-30 gm) were obtained from Harlan Sprague Dawley. The mice were housed in groups of four to six and kept on a 12-h light/12-h dark cycle. Mice were tested during the light cycle; and the original groupings were maintained (i.e., mice were not recombined into new groups or isolated) to decrease infighting and consequent stress that could confound the results. Behavioral Procedures: Following the procedure of Leszczynska and Kau (1992), each mouse was placed on a ¼inch wire mesh screen, which was then inverted; a mouse with no motor defects walks in a characteristic circular pattern, grasping the mesh with each paw and then letting go. Mice that could not walk normally at baseline were not used for testing. […] Baseline paw withdrawal latencies ranged between 2- to 3-sec. After collecting baseline data, the mice were injected with vehicle, ibutilide, or bupivacaine mixed with vehicle or ibutilide. At the appropriate times, motor scores and test paw withdrawal latencies were obtained. A 20-sec cut-off was employed to prevent tissue damage on the hot-plate test. Injection Procedures: Each mouse was injected with drug solution using a 30 gauge,½ inch needle attached to a 1 ml syringe (needle and syringe from Becton Dickinson). The animals were gently restrained, while the limb to be injected was extended to expose the popliteal space, which is behind the knee of the mouse. The needle was inserted in the popliteal space, and 0.05 ml of drug solutions injected. The nerve bundle of the sciatic nerve passes through the popliteal space. Thus, the limb and paw distal to the injection is effectively anesthetized. The motor and sensory tests were then repeated at 5-min intervals for a 1-h period. […] Some mice could place their paw on the screen, but could not grasp the screen with their digits; this was determined to be an intermediate phase. The motor block was determined to be resolved when the mouse could walk on the inverted screen using both the leg and paw. Sensory blockade was assessed by measuring in seconds, the time the bupivacaine-injected paw remained on hot-plate surface before withdrawing it. The test was terminated if the cut-off of 20-sec occurred during the test procedure. For time-course studies, two-factor repeated measures analysis of variance followed by the post hoc Tukey's test was used to assess for significant increases in paw withdrawal latencies compared to baseline. In addition, the effect of ibutilide to enhance bupivacaine was assessed, and compared with the appropriate controls at each time point during the 60-min test period. For dose-response curves, the data was converted to the percentage of maximum possible effect, which was calculated as: % MPE=[(Test−Baseline)/(20 −Baseline)]×100. […] The absence of overlapping confidence limits was used to indicate significant differences in ED50 values between dose-response curves. Potency-ratio values with 95% confidence limits were calculated by the method of Colquhoun (1971). Drugs: Sterile isotonic saline was used to dissolve and dilute drug solutions. Bupivacaine HCl was purchased from the MCV Hospitals Pharmacy (Winthrop Pharmaceuticals, NY, N.Y. ). To assure consistency, the same vial of bupivacaine was used for all injections involving bupivicaine. The concentration was varied by either diluting with normal saline, or by freeze-drying and then reconstituting the material with normal saline. The same vial of bupivacaine with 1:200,000 epinephrine was used for the second set of experiments. The epinephrine dose was adjusted by adding epinephrine to maintain a constant concentration of epinephrine 2.76×10^−5 M. Ibutilide fumarate was purchased from the MCV Hospitals Pharmacy (Pharmacia & Upjohn Company of Kalamazoo, Mich.). The concentration of ibutilide was held constant at 3.9 nanomoles (nmoles) per mouse. Enhancement of Bupivacaine HCl with Ibutilide. Experiments were conducted to determine whether ibutilide would enhance the local anesthetic effects of bupivacaine. […]

For test [2], the system named is male ICR mice. Briefly: Radiant heat tail-flick test after subcutaneous infiltration of the tail (infiltration anesthesia). The test is classed as in vivo. The note with it: for % Bupivacaine ED50 (95% C.L.): bupivacaine mixed with vehicle or sotalol (10 nmoles), infiltrated in mouse tail. The protocol: Methods of handling mice. Male ICR mice (Harlan Laboratories, Indianapolis, Ind.) weighing 27.0±0.4 g were housed 6 to a cage in animal care quarters maintained at 22±2 ° C. on a 12-h light-dark cycle. Food and water were available ad libitum. The mice were brought to a test room (22±2° C. , 12-h light-dark cycle), marked for identification and allowed 16-h to recover from transport and handling. The Institutional Animal Care and Use Committee at the Medical College of Virginia Campus of Virginia Commonwealth University approved all the procedures in this study.
The tail-flick test. The tail-flick test used to assess for infiltration anesthesia was developed by D'Amour and Smith (1941) and modified by Dewey et al (1970). The tail-flick device is designed to focus a light beam onto the site infiltrated with local anesthetic, without exposing non-injected tissue to the noxious radiant heat stimulus. The intensity was adjusted to yield baseline latencies of between 2- to 4-sec. A single baseline latency was obtained approximately 15-min before the mice were injected with drug. A 10-sec cut-off was used to prevent any potential tissue damage. In experiments testing for potential underlying infiltration anesthesia that was not observed with the higher heat stimulus, the intensity was reduced to yield baseline latencies of about 6-sec. A 12-sec cut-off was used in these experiments.
Subcutaneous infiltration of bupivacaine. Before infiltration of vehicle or drug, baseline tail-flick latencies were obtained by exposing the tail to noxious radiant heat at the site to be infiltrated with drug. The baseline average over the entire study was 3.1±0.1 sec. The mice were then restrained to allow us unencumbered access to the tail. A 26-gauge ⅝ needle was inserted approximately 1.0 to 1.3 cm longitudinally under the skin in the subcutaneous space in the dorsal aspect of the tail. The needle was attached to a 1-ml syringe (Becton Dickinson, Franklin Lakes, N.J. ) pre-filled with drug solution. A […] volume of drug solution was infiltrated, and the needle was left in place for 5-s to prevent leakage of injectate from the site after removing the needle. During injection, the solution dispersed around the circumference of the tail in a rostral-caudal direction of about 2- to 3-cm. A slight blanching of the skin that reversed within 1 to 2 min indicated the extent of the spread of solution. A non-toxic marking pen was used to mark the most rostral spread of solution. Tail-flick testing was conducted below the area marked on the tail. These methods are detailed in a previous report (Smith et al. 1997).
Experimental design. Sotalol was solubilized and then mixed with bupivacaine HCl for co-infiltration of the tail. The influence of increasing concentrations of sotalol on the ED50 dose of bupivacaine was also examined. Both baseline and test tail-flick latencies from each animal were converted into the percentage of maximum possible effect (% MPE) according to the method of Harris and Pierson (1964), which was calculated as: % MPE=[(test−baseline)/(10−baseline)]×100. The ordinate was % MPE, while the abscissa was expressed as the dose of sotalol. Complete bupivacaine dose-response curves were generated in the absence and presence of sotalol (10 nmole) for calculation of ED50 and potency ratio values. The ordinate was % MPE, while the abscissa was expressed as the % bupivacaine dose.
Statistical analyses: The Tail-Flick Latency (sec) values were analyzed with one factor ANOVA for experiments in which different concentrations of sotalol were tested with an ED50 dose of bupivacaine. A statistically significant F-value led to post hoc comparisons using the Tukey's test. The % MPE values for dose-response curves were analyzed in the following manner. ED50 values were calculated using least squares linear regression analysis of % MPE values followed by calculation of 95% confidence limits (C.L.) according to the method of Bliss (1967). […]
On the technique in general: Hot-plate and tail-flick tests time the reaction to a heat stimulus.

[3] abbreviates: bupivacaine containing 1:200,000 epinephrine mixed with vehicle or ibutilide (3.9 nmoles), popliteal space, hot-plate.
Where [4] appears, read: hot-plate 56° C., bupivacaine mixed with vehicle or ibutilide (3.9 nmoles), injected in popliteal space, no epinephrine.

As for `CCCCCCCN(CC)CCCC(O)c1ccc(NS(C)(=O)=O)cc1` (racemic) [Ibutilide, (±) N-[4-[4-(Ethylheptylamino)-1-hydroxybutyl]phenyl]methanesulfonamide (E)-2-butenedioate (2:1) salt], the “local anesthesia of the drug alone in the presence of 1:200,000 epinephrine” value in the test with male ICR mice [1] (1-h time-course) was “failed to elicit any anesthetic effects”. Further, in the test on male ICR mice [1] (no epinephrine), the “local anesthesia of the drug alone (paw-withdrawal latency)” value was “no anesthesia; also recorded: inactive”. The “Potency ratio (95% C.L.)” value in the test on male ICR mice [1] (bupivacaine + 1:200,000 epinephrine + ibutilide (3.9 nmoles) vs vehicle control, hot-plate) is 6.8 (4.3 to 12.7)**; in the test with male ICR mice [1] (bupivacaine + ibutilide (3.9 nmoles) vs bupivacaine + vehicle, hot-plate, no epinephrine), 2.8 (1.9 to 3.8)**. In addition, the figures for the “% Bupivacaine ED50 (95% C.L.)” value with male ICR mice [1] (setting [3]) and in the test with male ICR mice [1] (setting [4]) were 0.05% (0.04 to 0.06)** and 0.24% (0.19 to 0.30)**, respectively. Moreover, the “enhancement of the local anesthetic effects of 0.5% bupivacaine” value in the test on male ICR mice [1] (ibutilide 3.9 nmoles mixed with 0.5% bupivacaine, 60-min time-course, no epinephrine) is “markedly enhanced; also recorded: significantly increased”. Besides, the “duration of enhancement of the local anesthetic effects of 0.5% bupivacaine” value in the test on male ICR mice [1] (ibutilide 3.9 nmoles mixed with 0.5% bupivacaine, tested every 5 min for 1-h) came out at 35 min. The “enhancement of the amount (efficacy) of 0.125% bupivacaine + 1:200,000 epinephrine” value in the test on male ICR mice [1] (ibutilide 3.9 nmoles, 1-h time-course) is listed as “greatly increased”. Also, the “increase in relative potency of bupivacaine+1:200,000 epinephrine” value with male ICR mice [1] (in the presence of ibutilide (3.9 nmoles), hot-plate) is 6.8 fold. Besides, the “increase in potency of bupivacaine” value with male ICR mice [1] (in the presence of ibutilide (3.9 nmoles), hot-plate, no epinephrine) is 2.8 fold.

As to `CC(C)NCC(O)c1ccc(NS(C)(=O)=O)cc1.Cl` (stereo not shown) [Sotalol, N-[4-[1-hydroxy-2-[(1-methylethyl)amino]ethyl]phenyl]methanesulfonamide monohydrochloride], the “Potency ratio (95% C.L.)” value in the test on male ICR mice [2] (bupivacaine + sotalol (10 nmoles) vs bupivacaine + vehicle, tail-flick, 30-min) is 2.7 (1.6 to 4.5). The “% Bupivacaine ED50 (95% C.L.)” value with male ICR mice [2] (tail-flick 30-min later) is reported as 0.04% (0.03 to 0.06)**. Moreover, the “increase in potency of bupivacaine” value in the test with male ICR mice [2] (in the presence of sotalol (10 nmoles), tail-flick, 30-min) was determined as 2.7 fold. Further, the “enhancement of the anesthetic effects of an ED50 dose of bupivacaine (0.12%)” value with male ICR mice [2] (increasing doses of sotalol co-infiltrated, tail-flick 30-min later) was “enhanced in a dose-dependent fashion”. The “anesthetic effect of the drug alone” value in the test with male ICR mice [2] (sotalol alone, tail infiltration, tail-flick 30-min later, monohydrochloride) was “inactive; also recorded: no anesthetic effects”.

Take `CCCCN1CCCCC1C(=O)Nc1c(C)cccc1C` (stereo not shown) [bupivacaine]: the “local anesthesia of the drug alone in the presence of 1:200,000 epinephrine” value with male ICR mice [1] (1-h time-course) was “elicited local anesthesia”. Besides, in the test on male ICR mice [1] (no epinephrine), the “local anesthesia of the drug alone (paw-withdrawal latency)” value is listed as “mild level of anesthesia; also recorded: dose-dependent anesthesia”. Further, the “% Bupivacaine ED50 (95% C.L.)” value is 0.31% (0.22 to 0.44) in the test on male ICR mice [1] (setting [3]), 0.67% (0.59 to 0.77) in the test on male ICR mice [1] (setting [4]) and 0.11% (0.08 to 0.15) with male ICR mice [2] (tail-flick 30-min later).

Regarding `CNC[C@H](O)c1ccc(O)c(O)c1` [epinephrine], the “effect of 1:200,000 epinephrine on the efficacy of 0.125% bupivacaine” value in the test on male ICR mice [1] (time-course experiments, hot-plate) was “increased”.
